Reference: article PMC10706420, “A New Drug Discovery Platform: Application to DNA Polymerase Eta and Apurinic/Apyrimidinic Endonuclease 1” (International Journal of Molecular Sciences, 2023)
Read-outs that look alike come from different tables or passages of the source.

Columns and labels:
APE1 = molecular target: T1, APE1 (Homo sapiens, UniProt P27695); assay: in-house high-throughput in vitro biochemical assay for APE1 endonuclease activity (fluorescence-based)
T1 construct: made in house

Endonuclease IV = Endonuclease IV (Escherichia coli, UniProt P0A6C1); settings: from IC50 for APE1 and EndoIV

T1 sequence (P27695 whole entry): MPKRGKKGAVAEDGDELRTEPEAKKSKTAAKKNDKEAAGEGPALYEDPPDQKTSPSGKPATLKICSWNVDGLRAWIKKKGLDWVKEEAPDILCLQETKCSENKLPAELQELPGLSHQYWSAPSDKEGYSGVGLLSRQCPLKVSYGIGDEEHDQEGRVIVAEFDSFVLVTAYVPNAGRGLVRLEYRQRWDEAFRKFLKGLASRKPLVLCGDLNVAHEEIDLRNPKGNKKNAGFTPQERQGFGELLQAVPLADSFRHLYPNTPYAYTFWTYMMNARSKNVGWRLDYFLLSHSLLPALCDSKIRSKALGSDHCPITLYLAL

With CC(=O)Nc1sc2c(c1-c1nc3ccccc3s1)CCN(C(C)C)C2 [Inhibitor III] the IC50 (APE1) was 2000 nM, the IC50 (APE1; listed as APE1 Inhibitor III) was ~2000 nM and the “selectivity for APE1 over EndoIV” value (Endonuclease IV) was 3 fold.
